Test results reported in publication PMC10002984, “Dual PTP1B/TC-PTP Inhibitors: Biological Evaluation of 3-(Hydroxymethyl)cinnoline-4(1H)-Ones” (International Journal of Molecular Sciences, 2023).
Marks after values point to notes of the source that are not given here.

Experiments:
[1] = tested on: male rats with HFD-induced obesity; experiment: Blood glucose, insulin and leptin levels and insulin resistance index in obese rats; format: in vivo, male Wistar rats; conditions: for Glucose, After / Insulin, After / Leptin, After / Glucose, Before / Insulin, Before / Leptin, Before: blood, M ± SEM, n = 5; for Glucose, After / Insulin, After / Leptin, After / IR (insulin resistance index), After: after five-day i.p. treatment, 7 mg/kg (1, 2), 8 mg/kg (3), 10 mg/kg (4); for Glucose, Before / Insulin, Before / Leptin, Before / IR (insulin resistance index), Before: before treatment (baseline); for IR (insulin resistance index), After / IR (insulin resistance index), Before: product of blood glucose and insulin concentrations
Procedure: Further, six groups were formed: control (Con, n = 10), obesity (Ob, n = 10), obese rats with five-day treatment with compounds 1 (Ob + 1, n = 5), 2 (Ob + 2, n = 5), 3 (Ob + 3, n = 10), and 4 (Ob + 4, n = 10). All compounds were administered in DMSO (300 µL) at a daily dose of 7 mg/kg (1 and 2), 8 mg/kg (3), and 10 mg/kg (4) (i.p.), based on the results of the preliminary experiments. The used doses of compounds 1–4, in terms of the number of moles of each compound per kg of animal body weight, were equivalent. Control and obese rats received DMSO in the same volumes (300 µL), instead of the tested compounds. During the five days of the experiment, all animals were transferred to standard food and had free access to food and drinking water. […] The test was carried out on the morning of the next day after the last (fifth) injection of the compounds or DMSO, after a 10 h fast. The rest of the animals (n = 5 in each group) were anesthetized and decapitated on the last day of the experiment. The blood and liver samples were taken to measure blood glucose and hormone levels and gene expression in the liver.
The glucose levels in the blood obtained from the tail vein were measured using a glucometer (Life Scan Johnson & Johnson, Denmark) and the test strips “One Touch Ultra” (USA). The levels of insulin and leptin in rat serum were estimated with the “Rat Insulin ELISA” (Mercodia AB, Uppsala, Sweden) and “ELISA for Leptin, Rat” (Cloud-Clone Corporation, Houston, TX, USA) kits. The GTT was carried out using a single injection of glucose (2 g/kg, i.p.) after 10 h of fasting, as described earlier. The blood glucose levels were measured before (0 min) and 15, 30, 60, and 120 min after the glucose load.

[2] = target: T1, human recombinant TC-PTP protein (Homo sapiens, UniProt P17706); experiment: Phosphatase activity assay with DiFMUP, TC-PTP inhibition; format: biochemical; conditions: DiFMUP 35 µM, 80 ng/mL TC-PTP, compounds 0.1–80 μM; M ± SEM (n = 24); read-out: IC50 for the inhibitory effect on TC-PTP activity
T1 construct: purchased Sigma-Aldrich SRP0218
T1 sequence (P17706 1-415): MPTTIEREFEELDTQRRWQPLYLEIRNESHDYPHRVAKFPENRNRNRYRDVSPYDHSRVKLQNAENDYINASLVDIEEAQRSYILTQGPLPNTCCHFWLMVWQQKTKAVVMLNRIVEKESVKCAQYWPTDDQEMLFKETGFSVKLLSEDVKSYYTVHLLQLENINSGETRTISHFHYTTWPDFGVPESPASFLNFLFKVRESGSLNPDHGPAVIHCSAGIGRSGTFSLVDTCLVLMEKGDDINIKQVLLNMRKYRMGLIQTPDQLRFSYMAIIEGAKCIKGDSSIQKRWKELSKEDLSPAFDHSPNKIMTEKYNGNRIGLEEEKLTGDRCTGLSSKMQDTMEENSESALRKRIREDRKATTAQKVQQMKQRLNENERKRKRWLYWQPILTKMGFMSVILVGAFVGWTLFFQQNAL
Procedure: The measurement of the activity of the phosphatases PTP1B and TC-PTP and their inhibition was carried out using 6,8-difluoro-4methylumbelliferyl phosphate (DiFMUP), as previously described. The stock solution of recombinant human PTP1B protein (#ab51277, Abcam, Cambridge, UK), at a concentration of 1 µg/µL, was prepared in 25 mM Tris–HCl (pH 7.5), 20% glycerol, 2 mM β-mercaptoethanol, 1 mm EDTA, and 1 mM DTT, and stored at −20 °C. Active human recombinant TC-PTP protein was purchased from Sigma-Aldrich (#SRP0218, Saint Louis, MO, USA) as the aqueous buffer solution at a concentration of 2.9 mg/mL, and aliquots were stored at −80 °C. The fluorogenic substrate DiFMUP (#D6567, Molecular Probes, Thermo Fisher Scientific, Waltham, MA, USA) was dissolved at a concentration of 10 mM in N,N-dimethylformamide and stored in aliquots at −20 °C. The 6,8-difluoro-7-hydroxy-4-methylcoumarin (DiFMU, #D6566, Molecular Probes, Thermo Fisher Scientific, Waltham, MA, USA) was used as a reference fluorescent standard. For the IC50 determination, the assay was carried out in black flat bottom 96-well plates using a reaction volume of 100 µL. The phosphatases (PTP1B or TC-PTP) were preincubated with the tested compounds (0.1–80 µM) in 50 mM HEPES (pH 6.9), 100 mM NaCl, 1 mM EDTA, 2 mM DTT, 0.1 mg/mL BSA for 5 min at 37 °C. The following concentrations of the compounds were studied: 0.1, 0.2, 0.5, 1, 2, 5, 10, 20, 40, and 80 μM. The reactions were initiated by the addition of the fluorogenic substrate DiFMUP and diluted in the assay buffer. Progress curves for hydrolysis reaction were obtained with 25 µM of DiFMUP for 80 ng/mL PTP1B, and 35 µM of DiFMUP for 80 ng/mL TC-PTP. Fluorescence excitation of hydrolyzed DiFMUP and the fluorescent standard DiFMU was monitored at 355 nm and emission was detected at 460 nm for 6–10 min at 30 s intervals in a Fluoroskan Ascent FL microplate reader (Thermo Electron Corporation, Vantaa, Finland). Initial velocities of the reactions were used to calculate the IC50 values using GraphPad Prism.
The data on food intake, body weight, and biochemical parameters in rats, as well as the PCR data, were analyzed using the IBM SPSS Statistics 22 software (“IBM”, Armonk, NY, USA), and the results are presented as mean ± standard error of the mean (M ± SEM). All differences are considered significant at p < 0.05. The calculation of the IC50 values of the studied inhibitors for the initial velocities of enzymatic reactions (PTP1B, TC-PTP) was carried out using the nonlinear regression analysis with GraphPad Prism 8 (“GraphPad Software, Inc.”, Boston, MA, USA). The statistical analysis was carried out using the Wilcoxon test for pairwise comparison and Dunn’s test for multiple comparisons.

Compound | Glucose, After [1] | Insulin, After [1] | Leptin, After [1] | Glucose, Before [1] | Insulin, Before [1] | Leptin, Before [1] | IR (insulin resistance index), After [1] | IR (insulin resistance index), Before [1] | IC50 [2] [µM] | insulin resistance index compared to the Ob group ([1]; five-day treatment, 3 8 mg/kg/day)
O=c1c(CO)n[nH]c2ccccc12 [Compound 1] | 5.74 ± 0.07 ^a mM | 1.11 ± 0.14 ^a ng/mL | 1.72 ± 0.24 ^b,c ng/mL | 5.94 ± 0.22 ^a mM | 1.57 ± 0.16 ^a ng/mL | 3.06 ± 0.40 ^a ng/mL | 6.32 ± 0.77 ^a arb.Units | 9.46 ± 1.31 ^a arb.Units | 18.9 ± 2.06 | 
O=c1c(CO)n[nH]c2ccc(Cl)cc12 [Compound 3, 6-Chloro-3-(hydroxymethyl)cinnolin-4(1H)-one] | 5.36 ± 0.31 ^a mM | 0.93 ± 0.13 ^b,c ng/mL | 1.52 ± 0.21 ^b,c ng/mL | 5.80 ± 0.31 ^a mM | 1.51 ± 0.18 ^a ng/mL | 2.93 ± 0.42 ^a ng/mL | 5.12 ± 0.97 ^b arb.Units | 8.96 ± 1.46 ^a arb.Units | 2.98 ± 0.76 | significantly reduced
O=c1c(CO)n[nH]c2ccc(Br)cc12 [Compound 4, 6-Bromo-3-(hydroxymethyl)cinnolin-4(1H)-one] | 5.24 ± 0.25 ^a mM | 1.06 ± 0.13 ^a,c ng/mL | 1.90 ± 0.16 ^a,b,c ng/mL | 5.72 ± 0.30 ^a mM | 1.65 ± 0.18 ^a ng/mL | 3.17 ± 0.25 ^a ng/mL | 5.61 ± 0.89 ^a arb.Units | 9.63 ± 1.57 ^a arb.Units | 26.5 ± 4.66 | 
